Measurements published in patent publication US9040538B2, “Pyrimidines as novel therapeutic agents” (Universite Laval, priority 2009, dated 2015).

How the values were obtained:
[1] = system: rats rendered neuropathic via the CCI model; experiment: Analgesic effect in chronic constriction injury (CCI) model of neuropathic pain; assay type: in vivo, Sprague-Dawley rats; conditions: mean ± standard error of the mean
Protocol: (§1) Adult, male Sprague-Dawley rats were obtained from Charles River Laboratories (Wilmington, Mass.) and housed under standard conditions at the Institut Armand-Frappier (Laval, QC). Food and water were provided to experimental animals ad libitum, and rats weighed 175-200 grams at the time of assessment.
(§2) Compounds were prepared for intraperitoneal administration by dissolving them in a vehicle of hydroxypropyl methylcellulose (Sigma, St-Louis, Mo.); total volume of solution administered to rats was 10 ml/kg.
Alternatively, neuropathic pain was induced in rats via chronic constriction injury (CCI) of the left sciatic nerve with the procedure described by Bennett & Xie (Pain 1988; 33(1):87-107). Briefly, under isoflurane anaesthesia, the sciatic nerve was exposed by dissection at the level of the lower thigh and four loose ligatures (USP 4/0, Braun Melsaugen, FRG) were implanted around the nerve—with due attention not to interrupt the epineural circulation. The incision was closed-up using simple suturing, and the rats allowed to recover.
(§3) After approximately two weeks, a stable allodynia to blunt mechanical stimuli was identified in the hind paw ipsilateral to the SNI or CCI, manifested as a reduction of 50% withdrawal threshold, and identified using the Von Frey technique, as described by Chaplan et al. (J. Neurosci. Methods 1994; 53(1):55-63), or the Hargreaves method, as described by Hargreaves et al. (Pain 1988; 32(1):77-88). Rats were considered to be fully neuropathic upon displaying a 50% withdrawal threshold of ≦3.5 grams consistently over the course of 72 hours.
(§4) Compounds were administered to neuropathic rats via acute local delivery in the intraperitoneal space or by oral gavage.

[2] = system: rats rendered neuropathic via the SNI Model; experiment: Analgesic effect in spared nerve injury (SNI) model of neuropathic pain; assay type: in vivo, Sprague-Dawley rats; conditions: mean ± standard error of the mean
Protocol: as §1, §2
Neuropathic pain was induced in rats via spared nerve injury (SNI) of the left sciatic nerve in accordance with the procedure described by Decosterd & Woolf (Pain 2000; 87(2):149-58). Briefly, under isoflurane anesthesia, the sciatic nerve was exposed by dissection at the level of lower thigh, and a lesion of two of the three terminal branches of the nerve (tibial and common peroneal nerves) were performed leaving the remaining sural nerve intact. The incision was closed-up using simple suturing, and the rats allowed to recover.
as §3, §4

[3] = system: mice subjected to the Minimal Clonic Seizure model; experiment: Minimal Clonic Seizure test (psychomotor seizure model of partial epilepsy, 6 Hz); assay type: in vivo; conditions: 100 mg/kg intraperitoneally, 32 mA, 3 seconds
Protocol: Adult mice are pretreated with 100 mg/kg of test compound, acutely administered intraperitoneally. At varying times (15, 30, 60, 120 and 240 minutes post-treatment), animals are challenged with sufficient current (32 mA, 6 Hz, for 3 seconds) delivered through corneal electrodes to elicit a psychomotor seizure. Untreated mice will display seizures characterized by a minimal clonic phase followed by stereotyped, automatistic behaviors similar to the aura of human patients with partial seizures. Animals not displaying this behavior are considered protected (Barton et al., Epilepsy Res. 2001; 47(3):217-27). Results are expressed as the number of animal protected out of the number of animal tested over time.

| Compound | Peak paw withdrawal latency [1] | Peak 50% withdrawal threshold [2] | also measured |
| --- | --- | --- | --- |
| CCc1ncsc1CSc1nc(O)cc(C(F)(F)F)n1 [Example 164, 2-{[(4-ethyl-1,3-thiazol-5-yl)methyl]sulfanyl}-6-(trifluoromethyl)pyrimidin-4-ol] | 10.45 ± 0.47 s | – | – |
| CCc1ncccc1CSc1nc(C)cc(O)n1 [2-{[(2-ethylpyridin-3-yl)methyl]sulfanyl}-6-methylpyrimidin-4-ol] | 10.46 ± 1.16 s | – | – |
| Cc1cc(O)nc(SCc2nn(C)cc2Cl)n1 [2-{[(4-chloro-1-methyl-1H-pyrazol-3-yl)methyl]sulfanyl}-6-methylpyrimidin-4-ol] | 11.98 ± 1.71 s | – | – |
| CCc1cncc(CC)c1CSc1nc(O)cc(C(F)(F)F)n1 [2-{[(3,5-diethylpyridin-4-yl)methyl]sulfanyl}-6-(trifluoromethyl)pyrimidin-4-ol] | – | 6.04 ± 1.17 g | – |
| Cc1cc(O)nc(SCc2c(Cl)ccc(Cl)c2Cl)n1 [6-methyl-2-{[(2,3,6-trichlorophenyl)methyl]sulfanyl}pyrimidin-4-ol] | – | 6.24 ± 1.48 g | Protected Animals/tested animals ([3]; 15 minutes post-treatment): 1/4; Protected Animals/tested animals ([3]; 30 minutes post-treatment): 3/4; Protected Animals/tested animals ([3]; 60 minutes post-treatment): 2/4; Protected Animals/tested animals ([3]; 120 minutes post-treatment): 1/4; Protected Animals/tested animals ([3]; 240 minutes post-treatment): 0/4 |
| Cc1cc(O)nc(SCc2c(Cl)cncc2Cl)n1 [2-{[(3,5-dichloropyridin-4-yl)methyl]sulfanyl}-6-methylpyrimidin-4-ol] | 14.49 ± 1.24 s | 9.13 ± 1.60 g | Protected Animals/tested animals ([3]; 15 minutes post-treatment): 3/4; Protected Animals/tested animals ([3]; 30 minutes post-treatment): 3/4; Protected Animals/tested animals ([3]; 60 minutes post-treatment): 3/4; Protected Animals/tested animals ([3]; 120 minutes post-treatment): 1/4; Protected Animals/tested animals ([3]; 240 minutes post-treatment): 0/4 |
| Oc1cc(C(F)(F)F)nc(SCc2c(Cl)cncc2Cl)n1 [2-{[(3,5-dichloropyridin-4-yl)methyl]sulfanyl}-6-(trifluoromethyl)pyrimidin-4-ol] | 11.7 ± 1.43 s | 5.77 ± 1.01 g | – |
| Cc1cc(O)nc(SCc2c(Cl)ccnc2Cl)n1 [2-{[(2,4-dichloropyridin-3-yl)methyl]sulfanyl}-6-methylpyrimidin-4-ol] | – | 7.74 ± 2.13 g | – |
| CCc1cncc(Cl)c1CSc1nc(C)cc(O)n1 [2-{[(3-chloro-5-ethylpyridin-4-yl)methyl]sulfanyl}-6-methylpyrimidin-4-ol] | – | 8.73 ± 1.75 g | – |
